Entries after “also recorded” stand apart in the source; their conditions may differ.
How the values were obtained:
[1] = test system: estrogen-responsive reporter gene, ERE-tk109-Luc; test: Inhibition of E2-induced transcription, ERE-tk109-Luc reporter in MCF-7 cells; format: cell-based; settings: Homo sapiens, MCF7; read-out: Inhibition of E2-induced transcription in breast cells, IC50
Experimental: Representative compounds were tested for their inhibitory activity of estrogen according to the assay methods described in Hodges-Gallagher, L., Valentine, C. V., El Bader, S. and Kushner, P. J. (2007) “Histone Deacetylase Inhibitors Enhance the Efficacy of Hormonal Therapy Agents on Breast Cancer Cells and Blocks Anti-estrogen-Driven Uterine Cell Proliferation” Breast Cancer Res Treat, November; 105(3):297-309. Specifically, MCF-7 cells were transiently transfected with an estrogen-responsive reporter gene, ERE-tk109-Luc. Transfected cells were treated with antiestrogens in hormone-depleted medium in the presence of 100 pM 17β-estradiol (E2) for 22 hours. Luciferase activity was normalized to activity of E2 alone and IC50's were calculated using the least squares fit method.
A representative result for inhibition of E2-induced transcription in breast cells (nM) is shown below in tabular form: […]

[2] = test system: AP activity in ECC-1 cells; test: Alkaline phosphatase (AP) assay in ECC-1 uterine cells, agonist mode; format: cell-based, human; settings: for AP Agonist Act. (% of E2): ECC-1 cells, without E2; for Induction of Alkaline Phosphatase (AP) % E2: mean of n experiments; for Induction of AP activity in uterine cells (% E2): representative result
Experimental: Method for performing the alkaline phosphatase (AP) assay. ECC-1 cells were trypsinized and resuspended in hormone-depleted media and plated at a density of 15k cells per well into a 96-well plate for at least 4 hours. Cells were treated with antiestrogens for 3 days and plates were subsequently frozen at −80° C. Thawed plates were incubated with a chromogenic substrate of AP, p-nitrophenyl phosphate (Thermo Fisher Scientific), for 40 minutes at 40° C. and absorbances were read at 405 nm. AP activity was normalized to the activity of E2 alone. […] A representative result for induction of AP activity in uterine cells (% E2) is shown below in tabular form: […]

[3] = test system: AP activity in ECC-1 cells; test: Alkaline phosphatase (AP) assay in ECC-1 uterine cells co-treated with 500 pM E2, antagonist mode; format: cell-based, human; settings: for AP Antagonist Act. (% of E2): ECC-1 cells, co-treated with 500 pM E2
Experimental: Method for performing the alkaline phosphatase (AP) assay. ECC-1 cells were trypsinized and resuspended in hormone-depleted media and plated at a density of 15k cells per well into a 96-well plate for at least 4 hours. Cells were treated with antiestrogens for 3 days and plates were subsequently frozen at −80° C. […] AP activity was normalized to the activity of E2 alone.

ERα [4] = target: T1, ERα (Homo sapiens (Human), UniProt P03372); test: ER degradation, immunoblot of MCF-7 protein extracts; format: cell-based; settings: 100 nM, 24 hours
Experimental: MCF-7 cells were treated with 100 nM anti-estrogen for 24 hours in serum-free medium and protein extracts immunoblotted with D12 antibody to ERα and β-actin (Santa Cruz Biotechnology). The numbers below the blots represent the optical density of ERα bands of each treatment relative to percent vehicle after normalization to β-actin.
Target sequence in this assay (P03372 whole entry): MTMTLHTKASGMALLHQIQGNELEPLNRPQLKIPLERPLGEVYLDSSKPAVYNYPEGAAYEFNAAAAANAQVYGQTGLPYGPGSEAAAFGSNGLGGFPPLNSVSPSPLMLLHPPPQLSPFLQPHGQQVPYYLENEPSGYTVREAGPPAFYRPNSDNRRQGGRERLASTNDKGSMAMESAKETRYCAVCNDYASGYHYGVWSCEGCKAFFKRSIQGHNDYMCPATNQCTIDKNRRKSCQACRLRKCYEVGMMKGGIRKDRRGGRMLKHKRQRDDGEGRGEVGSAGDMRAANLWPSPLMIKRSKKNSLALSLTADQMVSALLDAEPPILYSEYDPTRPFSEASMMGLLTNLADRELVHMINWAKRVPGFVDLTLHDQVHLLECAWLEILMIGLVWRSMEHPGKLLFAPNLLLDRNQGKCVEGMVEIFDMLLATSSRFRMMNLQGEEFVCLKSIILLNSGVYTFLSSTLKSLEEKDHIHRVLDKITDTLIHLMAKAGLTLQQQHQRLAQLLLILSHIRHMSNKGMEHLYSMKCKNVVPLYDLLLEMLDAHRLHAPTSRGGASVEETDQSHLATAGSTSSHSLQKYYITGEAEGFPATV

ERα [5] = target: T1, ERα; test: ERα levels in breast cells, in-cell western (Colorimetric In-Cell ELISA); format: cell-based
Experimental: IC50's were calculated using the least squares fit method. Error bars represent S.E.M from triplicate wells.
Target sequence in this assay (P03372 whole entry): as above

ERα [6] = target: T1, ERα; test: ERα binding, LanthaScreen Competitive Binding Assay (TR-FRET)
From the text: Compounds were screened for their ability to displace a fluorescent labelled tracer ERα ligand via time resolved fluorescent energy transfer using the LanthaScreen Competitive Binding Assay screening service (Thermo Fisher Scientific).
Target sequence in this assay (P03372 whole entry, looked up): as the sequence (P03372 whole entry) above

[7] = test system: Clone 18 cells (MCF7/Her2/neu); test: Xenograft study, MCF7/Her2/neu tumors in mice; format: in vivo, athymic ovariectomized nu/nu mice; settings: oral gavage, doses as low as 10 mg/kg
Experimental: Xenograft studies were conducted by the Preclinical Therapeutics Core at the University of California, San Francisco in accordance with the Institutional Animal Care and Use Committee (IACUC) guidelines. Clone 18 cells (MCF7/Her2/neu) cells were grown in culture and implanted into athymic ovariectomized nu/nu mice. To stimulate tumor growth 0.36 mg estradiol 90 day release pellets (Innovative Research, Saratoga, FL) were implanted along with cells. When tumors reached 150-250 cubic millimeters the pellets were exchanged for 0.18 mg estradiol 90 day release pellets and divided into groups of six mice per treatment group. One of those groups received vehicle only (0.5% CMC+8% DMSO), and Compound B and Compound C each had 2 groups treated with either 10 or 100 mg/kg compound. Compounds were administered by oral gavage twice daily, except once daily on weekends/holidays for the first 21 days, and once daily after day 21. Tumors and bodyweight were measured twice weekly.

[8] = Pharmacokinetics in mice after oral gavage; format: in vivo, BALB/c female mice; settings: 5 mg/kg oral gavage; for Oral drug exposure, free fraction taken into account: mice, 0-24 hours
Experimental: Pharmacokinetics were studied in BALB/c female mice. For each arm, three BALB/c female mice were given 5 mg/kg of compound in 0.5% CMC formulation by oral gavage. Concentration of compounds in mouse plasma and their metabolites were analyzed at each time point using LC-MS/MS. The concentrations were adjusted for the free fraction of drug in mouse plasma (method below). Area under the curve was calculated using the trapezoidal rule for 0-24 hours.

PR = settings: De Savi; cited from earlier work
[9] = 100 nM dose, mean of n experiments

SMILES | AP Agonist Act. (% of E2) [2] | Induction of Alkaline Phosphatase (AP) % E2 [2] | Induction of AP activity in uterine cells (% E2) [2] | Residual AP activity with 100 nM compound plus E2 (% of E2 alone) ([3]; 100 nM antiestrogen, 500 pM E2) | AP Antagonist Act. (% of E2) [3] | Residual AP activity with 100 nM compound plus E2 (% of E2 alone) [3, 9] | also measured
C[C@@H]1Cc2c([nH]c3ccccc23)[C@@H](c2c(F)cc(/C=C/C(=O)O)cc2F)N1CC(C)(C)F [AZD9496, (E)-3-(3,5-Difluoro-4-((1R,3R)-2-(2-fluoro-2-methylpropyl)-3-methyl-2,3,4,9-tetrahydro-1H-pyrido[3,4-b]indol-1-yl)phenyl)acrylic Acid] | 35 % of E2 | 39 % E2 | 35 % E2 | – | – | – | IC50 [1]: 1.3 nM; Estrogen-like activity as AP agonist and antagonist in comparison to Compounds A-D ([2]; AP agonist and antagonist modes): approximately 10 fold
CCCN1CC(Oc2ccc([C@@H]3c4[nH]c5ccccc5c4C[C@@H](C)N3CC(C)(C)F)cc2F)C1 [Compound A, (1R,3R)-2-(2-fluoro-2-methylpropyl)-1-(3-fluoro-4-((1-propylazetidin-3-yl)oxy)phenyl)-3-methyl-2,3,4,9-tetrahydro-1H-pyrido[3,4-b]indole] | 3.96 % of E2 | – | 3.96 % E2 | 3.15 % E2 | 3.15 % of E2 | – | –
CCCN1CC(Oc2ccc([C@@H]3c4[nH]c5ccccc5c4C[C@@H](C)N3CC(C)(C)F)cc2)C1 [Compound B, (1R,3R)-2-(2-fluoro-2-methylpropyl)-3-methyl-1-(4-((1-propylazetidin-3-yl)oxy)phenyl)-2,3,4,9-tetrahydro-1H-pyrido[3,4-b]indole] | 2.18 % of E2 | 1.78 % E2 | 2.18 % E2 | 1.96 % E2 | 1.96 % of E2 | 1.56 % E2 | AP activity of ECC-1 cells normalized to the effect of 500 pM 17β-estradiol ([2]; compound alone): 2.18%; AP activity of ECC-1 cells co-treated with 500 pM 17β-estradiol, % of the activity 17β-estradiol would produce ([3]; co-treated with 500 pM 17β-estradiol): 1.96%; Estrogen receptor degradation in MCF-7 cells (immunoblot, FIG. 7) (ERα [4]): degrades the estrogen receptor; Relative change in ERα levels in breast cells % Veh (ERα [5]): 45 % Veh; Relative change in ERα levels in breast cells pIC50 (ERα [5]): 8.57; Estrogen receptor degradation in MCF-7 cells (in-cell western, FIG. 2) (ERα [5]; 24 hours): degrades the estrogen receptor; ERα binding activity in words (ERα [6]): comparable activity to fulvestrant, Goodacre Compound 102, and Goodacre Compound 107; ERα binding pIC50 (ERα [6]): 8.57; Effect on tumor size in xenografted mice [7]: shrinks MCF-7 (HER2/neu) tumors; also recorded: outstandingly potent in shrinking human breast cancer xenografts; Oral bioavailability and half-life ([8]; BALB/c mice): high oral bioavailability and half-life; Oral drug exposure, free fraction taken into account [8]: better 24 hour drug exposure compared to other compounds; also recorded: substantially higher oral drug exposure
C[C@@H]1Cc2c([nH]c3ccccc23)[C@@H](c2ccc(OCCN3CC(CF)C3)cc2)N1CC(C)(C)F [Compound C, (1R,3R)-2-(2-fluoro-2-methylpropyl)-1-(4-(2-(3-(fluoromethyl)azetidin-1-yl)ethoxy)phenyl)-3-methyl-2,3,4,9-tetrahydro-1H-pyrido[3,4-b]indole] | 3.1 % of E2 | 1.71 % E2 | 3.1 % E2 | 2.5 % E2 | 2.5 % of E2 | 1.76 % E2 | Relative change in ERα levels in breast cells % Veh (ERα [5]): 42 % Veh; Relative change in ERα levels in breast cells pIC50 (ERα [5]): 8.87; ERα binding activity in words (ERα [6]): comparable activity to fulvestrant, Goodacre Compound 102, and Goodacre Compound 107; Effect on tumor size in xenografted mice [7]: outstandingly potent in shrinking human breast cancer xenografts; Oral drug exposure, free fraction taken into account [8]: substantially higher oral drug exposure
C[C@@H]1Cc2c([nH]c3ccccc23)[C@@H](c2c(F)cc(OCCN3CC(CF)C3)cc2F)N1CC(C)(C)F [Compound D, (1R,3R)-1-(2,6-difluoro-4-(2-(3-(fluoromethyl)azetidin-1-yl)ethoxy)phenyl)-2-(2-fluoro-2-methylpropyl)-3-methyl-2,3,4,9-tetrahydro-1H-pyrido[3,4-b]indole, reference compound] | 3.37 % of E2 | 4.45 % E2 | 3.37 % E2 | 4.07 % E2 | 4.07 % of E2 | 3.98 % E2 | –
C[C@]12CC[C@@H]3c4ccc(O)cc4C[C@@H](CCCCCCCCC[S+]([O-])CCCC(F)(F)C(F)(F)F)[C@H]3[C@@H]1CC[C@@H]2O (stereo partly shown) [Fulvestrant, reference compound] | – | −0.04 % E2 | −0.13 % E2 | −2.2 % E2 | – | −0.09 % E2 | –
CCCN1CC(Oc2cc(F)c([C@@H]3c4[nH]c5ccccc5c4C[C@@H](C)N3CC(C)(C)F)c(F)c2)C1 [Goodacre Compound 107, (1R,3R)-1-(2,6-difluoro-4-((1-propylazetidin-3-yl)oxy)phenyl)-2-(2-fluoro-2-methylpropyl)-3-methyl-2,3,4,9-tetrahydro-1H-pyrido[3,4-b]indole, reference compound] | – | 0.00 % E2 | – | – | – | 1.03 % E2 | –
Oc1ccc2c(c1)CC[C@H](c1ccccc1)[C@@H]2c1ccc(OCCN2CCCC2)cc1 [Lasofoxifene, reference compound] | – | – | 86 % E2 | 83 % E2 | – | – | –
C[C@@H]1Cc2c([nH]c3ccccc23)[C@@H](c2ccc(/C=C/C(=O)O)cc2)N1CC(C)(C)F [WO 2014/191726 Example 2] | – | – | – | – | – | – | PR agonist pIC50 (PR): <5.5

Reference: patent US20240131013A1, “TETRAHYDRO-1H-PYRIDO[3,4-b]INDOLE ANTI-ESTROGENIC DRUGS” (Olema Pharmaceuticals, Inc., priority 2015, published 2024)
